One data set deals with SARS-CoV-2. The conditions noted are these: cited from earlier work.
The nature of data set [1]: Toxicity observation at the 20 μg dose of BUD. The format is in vivo, C57BL/6 mice. The conditions noted are these: 20 μg dose of BUD.
The conditions of data set [2]: cited from earlier work.

Data on three molecules can be found in US12433902B2, “Liposomal formulations for inhibiting SARS-CoV-2 replication and reducing lung inflammation” (priority 2021, dated 2025).

Where a name gives a salt, the structure may show the parent alone.

With “human recombinant soluble ACE2: human recombinant soluble ACE2”, the “viral growth in vitro” value in the data set on SARS-CoV-2 is recorded as “reduces viral growth in vitro”.

As to `CCCC1O[C@@H]2C[C@H]3[C@@H]4CCC5=CC(=O)C=C[C@]5(C)[C@H]4[C@@H](O)C[C@]3(C)[C@]2(C(=O)CO)O1` (some centres unmarked) [budesonide], the “toxicity to the spleen, liver, bone marrow, skin or the gastrointestinal tract” value in data set [1] is listed as “without evidence of toxicity”. The half-life entry in data set [2] (BUD alone in the lungs) is “about 36 hours”. Further, the “effective life in the lungs” value in data set [2] (BUD alone) was “slightly more than one day”.

With `CN(C)C(=O)COC(=O)Cc1ccc(OC(=O)c2ccc(NC(=N)N)cc2)cc1` [camostat mesylate], in the data set on SARS-CoV-2 (high doses (e.g., 100 μg/mL)), the SARS-CoV-2 growth entry is recorded as “reduce SARS-CoV-2 growth partially”.
